Data as given in ChEMBL document CHEMBL2417411, “Design and synthesis of novel 2'-hydroxy group substituted 2-pyridone derivatives as anticancer agents” (Eur J Med Chem, 2013).

What was measured:
[1] = system: SW480; assay: cells; settings: Homo sapiens, SW480, 48 h
Description: Cytotoxicity against human SW480 cells after 48 hrs by MTT assay

[2] = system: MDA-MB-231; assay: cells; settings: Homo sapiens, MDA-MB-231, 48 h
Description: Cytotoxicity against human MDA-MB-231 cells after 48 hrs by MTT assay

[3] = system: SGC-7901; assay: cells; settings: Homo sapiens, SGC-7901, 48 h
Description: Cytotoxicity against human SGC7901 cells after 48 hrs by MTT assay

[4] = cells; settings: Homo sapiens, QGY7701, 48 h
Description: Cytotoxicity against human QGY7701 cells after 48 hrs by MTT assay

[5] = system: A549; assay: cells; settings: Homo sapiens, A549, 48 h
Description: Cytotoxicity against human A549 cells after 48 hrs by MTT assay

[6] = system: HeLa; assay: cells; settings: Homo sapiens, 48 h
Description: Cytotoxicity against human HeLa cells after 48 hrs by MTT assay

[7] = physchem; settings: octanol/water
Description: Lipophilicity, log P of the compound

[8] = system: SW480; assay: Ratio of 5-fluorouracil IC50 to compound IC50 for human SW480 cells after 48 hrs by MTT assay; type: functional
[9] = system: HeLa; assay: Ratio of 5-fluorouracil IC50 to compound IC50 for human HeLa cells after 48 hrs by MTT assay; type: functional
[10] = system: A549; assay: Ratio of 5-fluorouracil IC50 to compound IC50 for human A549 cells after 48 hrs by MTT assay; type: functional

Compound | IC50 [1] | IC50 [2] | IC50 [3] | IC50 [4] | IC50 [5] | IC50 [6] | logP [7] | Ratio IC50 [8] | Ratio IC50 [9] | Ratio IC50 [10]
COc1ccc(C(=O)c2ccc(=O)n(-c3ccccc3C)c2)c(OCc2cn(Cc3ccc(Br)cc3)nn2)c1 | > 30 µM | 2.47 µM | 2.29 µM | 4.99 µM | 5.45 µM | 4.25 µM | 4.23 | – | – | –
COc1ccc(C(=O)c2ccc(=O)n(-c3ccccc3C)c2)c(OCc2cn(Cc3ccc(C)cc3)nn2)c1 | 0.48 µM | 0.49 µM | 5.48 µM | > 30 µM | 0.61 µM | 0.38 µM | 4.1 | – | – | –
COc1ccc(C(=O)c2ccc(=O)n(-c3ccccc3C)c2)c(OC(=O)c2cc([N+](=O)[O-])cc([N+](=O)[O-])c2)c1 | 2.75 µM | 3.28 µM | 2.44 µM | > 30 µM | 3.89 µM | 5.33 µM | 3.88 | – | – | –
COc1ccc(C(=O)c2ccc(=O)n(-c3ccccc3C)c2)c(OCc2cn(Cc3ccccc3Cl)nn2)c1 | 0.39 µM | 0.38 µM | > 30 µM | 4.72 µM | 0.69 µM | 1.7 µM | 4.05 | – | – | –
COc1ccc(Cn2cc(COc3cc(OC)ccc3C(=O)c3ccc(=O)n(-c4ccccc4C)c3)nn2)cc1 | > 30 µM | 0.59 µM | 1.28 µM | > 30 µM | 1.54 µM | 0.99 µM | 3.79 | – | – | –
COc1ccc(C(=O)c2ccc(=O)n(-c3ccccc3C)c2)c(OCc2cn(Cc3ccccc3C)nn2)c1 | 3.07 µM | 1.34 µM | > 30 µM | 4.63 µM | 3.21 µM | 4.86 µM | 4.1 | – | – | –
CCCCC(CC)C(=O)Oc1cc(OC)ccc1C(=O)c1ccc(=O)n(-c2ccccc2C)c1 (stereo unspecified) | 3.35 µM | 0.37 µM | 1.48 µM | > 30 µM | 2.95 µM | 2.28 µM | 5.04 | – | – | –
COc1ccc(C(=O)c2ccc(=O)n(-c3ccccc3C)c2)c(OCc2cn(Cc3ccccc3Br)nn2)c1 | 3.62 µM | > 30 µM | 1.23 µM | > 30 µM | 5.35 µM | 5.22 µM | 4.05 | – | – | –
CCOC(=O)Oc1cc(OC)ccc1C(=O)c1ccc(=O)n(-c2ccccc2C)c1 | 4.56 µM | > 30 µM | 3.35 µM | > 30 µM | 5.83 µM | 7.44 µM | 2.95 | – | – | –
COc1ccc(C(=O)c2ccc(=O)n(-c3ccccc3C)c2)c(OCc2cn(Cc3ccccc3)nn2)c1 | 2.51 µM | > 30 µM | 1.25 µM | > 30 µM | 3.64 µM | 4.23 µM | 3.88 | – | – | –
CCCOC(=O)Oc1cc(OC)ccc1C(=O)c1ccc(=O)n(-c2ccccc2C)c1 | 5.97 µM | 2.11 µM | 4.18 µM | > 30 µM | 6.13 µM | 7.03 µM | 3.31 | – | – | –
COc1ccc(C(=O)c2ccc(=O)n(-c3ccccc3C)c2)c(OCc2cn(Cc3cccc(Br)c3)nn2)c1 | 2.32 µM | > 30 µM | 5.68 µM | > 30 µM | 4.46 µM | 4.52 µM | 4.05 | – | – | –
COc1ccc(C(=O)c2ccc(=O)n(-c3ccccc3C)c2)c(OC(=O)Cc2ccc(Cl)cc2)c1 | 0.58 µM | 2.44 µM | 3.48 µM | 5.68 µM | 0.49 µM | 0.58 µM | 4.4 | – | – | –
O=c1[nH]cc(F)c(=O)[nH]1 [FLUOROURACIL] | – | – | – | – | – | 16.5 µM | – | – | – | –
COc1ccc(C(=O)c2ccc(=O)n(-c3ccccc3C)c2)c(OC(=O)OCc2ccccc2)c1 | 0.52 µM | 0.75 µM | 0.69 µM | 4.33 µM | 0.59 µM | 0.46 µM | 4.23 | 30.2 | 35.9 | 9.5
COc1ccc(C(=O)C2=CC(c3ccccc3C)C(=O)C=C2)c(OCc2cn(Cc3ccc(C(C)(C)C)cc3)nn2)c1 (stereo unspecified) | 0.11 µM | 3.35 µM | 3.52 µM | 3.39 µM | 1.73 µM | 0.34 µM | – | 142.7 | 48.5 | –
COc1ccc(C(=O)c2ccc(=O)n(-c3ccccc3C)c2)c(OCc2cn(Cc3ccccc3C#N)nn2)c1 | > 30 µM | > 30 µM | > 30 µM | > 30 µM | 8.32 µM | 8.05 µM | 3.6 | – | – | –

Compound | IC50 [1] | IC50 [2] | IC50 [3] | IC50 [4] | IC50 [5] | IC50 [6] | logP [7] | Ratio IC50 [8] | Ratio IC50 [9] | Ratio IC50 [10]
COc1ccc(C(=O)c2ccc(=O)n(-c3ccccc3C)c2)c(OCc2cn(Cc3ccc(Cl)cc3)nn2)c1 | 0.21 µM | 0.32 µM | 1.1 µM | > 30 µM | 0.86 µM | 0.54 µM | 4.05 | 74.8 | 30.6 | 6.5
COc1ccc(C(=O)c2ccc(=O)n(-c3ccccc3C)c2)c(OC(=O)c2ccc(Cl)cc2)c1 | 1.33 µM | 1.84 µM | 5.79 µM | > 30 µM | 5.23 µM | 1.56 µM | 4.27 | – | – | –
COc1ccc(C(=O)c2ccc(=O)n(-c3ccccc3C)c2)c(OCc2cn(Cc3ccc(Cl)cc3Cl)nn2)c1 | 2.22 µM | 1.19 µM | 0.41 µM | 6.43 µM | 2.56 µM | 3.51 µM | 4.23 | – | – | –
COc1ccc(C(=O)c2ccc(=O)n(-c3ccccc3C)c2)c(OC(=O)Cc2ccccc2Cl)c1 | 1.17 µM | 2.97 µM | 1.45 µM | 6.05 µM | 1.94 µM | 0.87 µM | 4.4 | – | – | –
COc1ccc(C(=O)c2ccc(=O)n(-c3ccccc3C)c2)c(OC(=O)c2ccccc2)c1 | 3.12 µM | 1.18 µM | 1.42 µM | > 30 µM | 4.47 µM | 7.29 µM | 4.09 | – | – | –
COc1ccc(C(=O)c2ccc(=O)n(-c3ccccc3C)c2)c(OCc2cn(Cc3ccc(C#N)cc3)nn2)c1 | > 30 µM | 0.43 µM | > 30 µM | 2.87 µM | 4.31 µM | 0.89 µM | 3.6 | – | – | –
COc1ccc(C(=O)c2ccc(=O)n(-c3ccccc3C)c2)c(OCc2cn(Cc3ccc(F)cc3)nn2)c1 | 2.37 µM | 1.46 µM | 0.19 µM | 5.44 µM | 0.48 µM | 8.48 µM | 3.59 | – | – | –
C#CCOc1cc(OC)ccc1C(=O)c1ccc(=O)n(-c2ccccc2C)c1 | 5.33 µM | > 30 µM | 6.94 µM | 9.08 µM | 7.59 µM | 7.82 µM | – | – | – | –
COc1ccc(C(=O)c2ccc(=O)n(-c3ccccc3C)c2)c(OCc2cn(Cc3cccc(F)c3)nn2)c1 | 2.23 µM | 1.24 µM | > 30 µM | > 30 µM | 3.06 µM | 5.75 µM | 3.59 | – | – | –
COc1ccc(C(=O)c2ccc(=O)n(-c3ccccc3C)c2)c(OCc2cn(Cc3cccc(C)c3)nn2)c1 | 2.45 µM | 0.21 µM | > 30 µM | 6.38 µM | 3.25 µM | 3.27 µM | 4.1 | – | – | –
COc1ccc(C(=O)c2ccc(=O)n(-c3ccccc3C)c2)c(OCc2cn(Cc3cccc(Cl)c3)nn2)c1 | 1.37 µM | 0.38 µM | > 30 µM | > 30 µM | 1.53 µM | 3.71 µM | 4.05 | – | – | –
COc1ccc(C(=O)c2ccc(=O)n(-c3ccccc3C)c2)c(OC(=O)c2ccc(F)cc2)c1 | 2.78 µM | 2.35 µM | 3.62 µM | 9.64 µM | 3.68 µM | 6.86 µM | 3.81 | – | – | –
COc1ccc(C(=O)c2ccc(=O)n(-c3ccccc3C)c2)c(OCc2cn(Cc3cccc(O[N+](=O)[O-])c3)nn2)c1 | 4.42 µM | 1.39 µM | 0.55 µM | 3.01 µM | 3.61 µM | 3.12 µM | 3.77 | – | – | –
COc1ccc(C(=O)c2ccc(=O)n(-c3ccccc3C)c2)c(OC(C)=O)c1 | > 30 µM | > 30 µM | 6.21 µM | > 30 µM | > 30 µM | > 30 µM | 2.7 | – | – | –
COc1ccc(C(=O)c2ccc(=O)n(-c3ccccc3C)c2)c(OCc2cn(Cc3ccccc3F)nn2)c1 | 3.28 µM | 1.14 µM | > 30 µM | > 30 µM | 3.96 µM | 4.83 µM | 3.59 | – | – | –
COc1ccc(C(=O)c2ccc(=O)n(-c3ccccc3C)c2)c(OC(=O)c2ccc(C)cc2)c1 | 2.31 µM | 0.54 µM | 3.96 µM | > 30 µM | 3.24 µM | 3.27 µM | 4.32 | – | – | –
